Results as given in patent US20250115598A1 (Anaxis Pharma Pty Ltd, priority 2021, published 2025).
Each block holds one compound with its values, some of them ahead of it.

What was measured:
[1] = molecular target: human MLKL (full length) (Homo sapiens (Human), UniProt Q8NB16); assay: KINOMEscan binding assay, human MLKL (full length); conditions: hMLKL, Table 25; read-out: MLKL (KD)
How it was run: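 Assay principle: test compound competes with immobilized bead ligand for kinase; kinase retained, then eluted, is counted by qPCR. Conditions were 1% DMSO final with 11 compound concentrations in 3-fold steps, 30,000 nM top for most. The Hill equation with slope −1 gave Kd.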

[2] = test system: Immortalised Mouse Dermal Fibroblasts (MDFs); assay: Cellular assay: inhibition of TSI induced necroptosis, CellTitre-Glo viability; conditions: Mus musculus, Fibroblast; MDF, 3 hours TSI cocktail, Table 27; read-out: Inhibition of TSI-induced necroptosis (IC50 cell-based assay) in MDF
How it was run: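 Necroptosis induced for 3 h with TSI: rhTNF 100 ng/ml, Smac mimetic 500 nM, caspase inhibitor IDN-6556 10 μM. Mouse dermal fibroblasts had received compound (36 μM top, ten three-fold steps) 30 min beforehand. ATP-based viability scaled between untreated and TSI-only wells; IC50 taken as 4-parameter curve inflection.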

[3] = molecular target: endogenous MLKL in U937 (Homo sapiens (Human), UniProt Q8NB16); assay: Degradation assay: endogenous MLKL in U937 (western blot); conditions: U937, 24 h incubation, read-out: Degradation of endogenous MLKL in U937 (DC50 cell-based assay)
endogenous MLKL in U937, sequence (Q8NB16 whole entry): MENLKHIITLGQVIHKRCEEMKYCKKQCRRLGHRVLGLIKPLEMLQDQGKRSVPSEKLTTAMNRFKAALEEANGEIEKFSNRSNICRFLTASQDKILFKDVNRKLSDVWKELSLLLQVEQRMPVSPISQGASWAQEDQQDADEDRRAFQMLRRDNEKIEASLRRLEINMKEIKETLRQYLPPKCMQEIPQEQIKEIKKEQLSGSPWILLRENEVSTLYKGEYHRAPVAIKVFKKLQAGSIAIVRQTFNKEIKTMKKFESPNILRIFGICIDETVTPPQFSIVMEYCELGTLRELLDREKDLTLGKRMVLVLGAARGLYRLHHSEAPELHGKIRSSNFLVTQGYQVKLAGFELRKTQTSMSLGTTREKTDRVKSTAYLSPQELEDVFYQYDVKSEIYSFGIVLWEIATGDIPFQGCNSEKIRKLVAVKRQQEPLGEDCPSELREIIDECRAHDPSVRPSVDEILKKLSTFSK
How it was run: (§1)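 Western blot band intensity of MLKL, adjusted to GAPDH loading and normalized to DMSO-only wells, gave percent degradation. Compound exposure lasted 24 h at final concentrations of 10–0.016 μM in 1:5 steps, in mouse dermal fibroblasts or human U937 cells.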

[4] = molecular target: endogenous MLKL in MDF (Mus musculus (Mouse), UniProt Q9D2Y4); assay: Degradation assay: endogenous MLKL in MDF (western blot); conditions: MDF cells, 24 h incubation with compound, MLKL adjusted for loading with GAPDH, normalized to DMSO only control, read-out: Degradation of endogenous MLKL in MDF (DC50 cell-based assay)
endogenous MLKL in MDF, sequence (Q9D2Y4 whole entry): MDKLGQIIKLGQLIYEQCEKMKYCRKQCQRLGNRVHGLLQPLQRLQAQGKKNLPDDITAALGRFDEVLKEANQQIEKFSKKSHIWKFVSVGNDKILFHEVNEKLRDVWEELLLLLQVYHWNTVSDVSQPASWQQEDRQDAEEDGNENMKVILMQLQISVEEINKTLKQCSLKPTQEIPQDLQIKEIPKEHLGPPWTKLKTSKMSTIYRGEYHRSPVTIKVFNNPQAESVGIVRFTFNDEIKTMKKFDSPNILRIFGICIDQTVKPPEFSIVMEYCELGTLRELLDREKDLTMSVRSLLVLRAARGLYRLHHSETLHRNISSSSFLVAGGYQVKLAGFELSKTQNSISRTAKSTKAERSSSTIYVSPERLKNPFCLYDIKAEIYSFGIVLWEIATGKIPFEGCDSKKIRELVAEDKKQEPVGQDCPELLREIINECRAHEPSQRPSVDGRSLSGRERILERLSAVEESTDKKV
How it was run: as §1

human MLKL (full length), sequence (Q8NB16 whole entry): as the sequence (Q8NB16 whole entry) above

Compound: C[C@H](Oc1cc(-c2nn(C)c3c(-c4cnn(C5CCN(C(=O)CC6CCCN(c7cccc8c7C(=O)N(C7CCC(=O)NC7=O)C8=O)C6)CC5)c4)cnc(N)c23)ccc1NS(=O)(=O)C(F)F)c1ccc(F)cc1 (stereo partly drawn) [Compound 1073, N-[4-(4-amino-7-{1-[1-(2-{1-[1,3-dioxo-2-(2-oxo-piperidin-3-2,3-yl)-dihydro-1H-isoindol-4-yl]piperidin-3-yl}acetyl)piperidin-4-yl]-1H-pyrazol-4-yl}-1-methyl-1H-pyrazolo[4,3-c]pyridin-3-yl)-2-[(1S)-1-(4-fluorophenyl)ethoxy]phenyl]-1,1-difluoromethanesulfonamide]
- Kd [1]: 10 to 1000 nM
- IC50 [2]: < 1000 nM
- DC50 [3]: < 1000 nM
- DC50 [4]: < 1000 nM

Compound: C[C@H](Oc1cc(-c2nn(C)c3c(-c4cnn(C5CCN(CCCN6CCN(C(=O)COc7ccc8c(c7)C(=O)N(C7CCC(=O)NC7=O)C8=O)CC6)CC5)c4)cnc(N)c23)ccc1NS(=O)(=O)C(F)F)c1ccc(F)cc1 (stereo partly drawn) [Compound 1091, N-(4-{4-amino-7-[1-(1-{3-[4-(2-{[2-(2,6-dioxopiperidin-3-yl)-1,3-dioxo-2,3-dihydro-1H-isoindol-5-yl]oxy}acetyl)piperazin-1-yl]propyl}piperidin-4-yl)-1H-pyrazol-4-yl]-1-methyl-1H-pyrazolo[4,3-c]pyridin-3-yl}-2-[(1S)-1-(4-fluorophenyl)ethoxy]phenyl)-1,1-difluoromethanesulfonamide]
- Kd [1]: < 10 nM
- IC50 [2]: < 1000 nM
- DC50 [3]: < 1000 nM
- DC50 [4]: < 1000 nM

The next lines start with results.

- Kd [1]: < 10 nM
- DC50 [3]: < 1000 nM
- DC50 [4]: < 1000 nM
Compound: C[C@H](Oc1cc(-c2nn(C)c3c(-c4cnn(C5CCN(CC6CCN(c7cccc8c7C(=O)N(C7CCC(=O)NC7=O)C8=O)C6)CC5)c4)cnc(N)c23)ccc1NS(=O)(=O)C(F)F)c1ccc(F)cc1 (stereo partly drawn) [Compound 1083, N-[4-(4-amino-7-{1-[1-({1-[2-(2,6-dioxopiperidin-3-yl)-1,3-dioxo-2,3-dihydro-1H-isoindol-4-yl]pyrrolidin-3-yl}methyl)piperidin-4-yl]-1H-pyrazol-4-yl}-1-methyl-1H-pyrazolo[4,3-c]pyridin-3-yl}-2-[(1S)-1-(4-fluorophenyl)ethoxy]phenyl]-1,1-difluoromethanesulfonamide]
- IC50 [2]: < 1000 nM

- Kd [1]: < 10 nM
- DC50 [3]: < 1000 nM
- DC50 [4]: < 1000 nM
Compound: Cn1nc(-c2ccc(NS(=O)(=O)C(F)F)c(F)c2)c2c(N)ncc(-c3cnn(C4CCN(C(=O)N5CCN(c6cccc7c6C(=O)N(C6CCC(=O)NC6=O)C7=O)CC5)CC4)c3)c21 (centres unmarked) [Compound 1131, N-(4-{4-amino-7-[1-(1-{4-[2-(2,6-dioxopiperidin-3-yl)-1,3-dioxo-2,3-dihydro-1H-isoindol-4-yl]piperazine-1-carbonyl}piperidin-4-yl)-1H-pyrazol-4-yl]-1-methyl-1H-pyrazolo[4,3-c]pyridin-3-yl}-2-fluorophenyl)-1,1-difluoromethanesulfonamide]
- IC50 [2]: 1000 to 10000 nM

- Kd [1]: < 10 nM
- DC50 [3]: < 1000 nM
- DC50 [4]: < 1000 nM
Compound: CCS(=O)(=O)Nc1ccc(-c2nn(C)c3c(-c4cnn(C5CCN(C(=O)CCC6CCN(c7cccc8c7C(=O)N(C7CCC(=O)NC7=O)C8=O)CC6)CC5)c4)cnc(N)c23)cc1F (centres unmarked) [Compound 1088, N-[4-(4-amino-7-{1-[1-(3-{1-[2-(2,6-dioxopiperidin-3-yl)-1,3-dioxo-2,3-dihydro-1H-isoindol-4-yl]piperidin-4-yl}propanoyl)piperidin-4-yl]-1H-pyrazol-4-yl}-1-methyl-1H-pyrazolo[4,3-c]pyridin-3-yl}-2-fluorophenyl]ethane-1-sulfonamide]
- IC50 [2]: < 1000 nM
